Columns and labels:
Assay type in all cases: in vitro ADME
human P-gp [1] = biological target: T1, human P-gp (Homo sapiens, UniProt P08183); test: Inhibition of tracer uptake in P-gp-expressing vesicles; settings: tracer [3H]digoxin 1 µM
T1 construct: purchased GenoMembrane Co., Ltd. (Kanagawa, Japan); host or cells: Sf9
Procedure: (§1) For ABC transporters, experimental kits containing Sf9-derived vesicles with high expression levels of human P-gp, MRP4, BCRP, and each ABC transporter (including buffer, ATP/AMP solution, and glutathione) were purchased from GenoMembrane Co., Ltd. (Kanagawa, Japan).
(§2) Vesicular transport assays were carried out according to the manufacturer’s protocol. […] The reaction was started by suspending 50 μg of vesicles (10 μL) in 40 μL of the reaction buffer. After incubation for an appropriate period of time, the reaction was stopped by the addition of ice-cold stop buffer (40 mM MOPS-Tris and 70 mM KCl; pH 7.0), after which the solution was filtered through a 0.45 μm HA filter (Millipore Corp., Billerica, MA, USA) using suction, and was washed twice in 5 mL of ice-cold stop buffer. The radioactivity of the filter was measured with a Tri-Carb 2910TR liquid scintillation counter (PerkinElmer) using Ultima Gold (PerkinElmer). The amount of tracer uptake was normalized to the membrane protein amount described in the product information sheets.

OATP1B3 = biological target: T2, OATP1B3 (Homo sapiens, UniProt Q9NPD5); test: [14C]fluciclovine uptake by OATP1B3-expressing cells; settings: OATP1B3 cells vs mock cells
T2 construct: host or cells: HEK293
T2 sequence (Q9NPD5 1-702): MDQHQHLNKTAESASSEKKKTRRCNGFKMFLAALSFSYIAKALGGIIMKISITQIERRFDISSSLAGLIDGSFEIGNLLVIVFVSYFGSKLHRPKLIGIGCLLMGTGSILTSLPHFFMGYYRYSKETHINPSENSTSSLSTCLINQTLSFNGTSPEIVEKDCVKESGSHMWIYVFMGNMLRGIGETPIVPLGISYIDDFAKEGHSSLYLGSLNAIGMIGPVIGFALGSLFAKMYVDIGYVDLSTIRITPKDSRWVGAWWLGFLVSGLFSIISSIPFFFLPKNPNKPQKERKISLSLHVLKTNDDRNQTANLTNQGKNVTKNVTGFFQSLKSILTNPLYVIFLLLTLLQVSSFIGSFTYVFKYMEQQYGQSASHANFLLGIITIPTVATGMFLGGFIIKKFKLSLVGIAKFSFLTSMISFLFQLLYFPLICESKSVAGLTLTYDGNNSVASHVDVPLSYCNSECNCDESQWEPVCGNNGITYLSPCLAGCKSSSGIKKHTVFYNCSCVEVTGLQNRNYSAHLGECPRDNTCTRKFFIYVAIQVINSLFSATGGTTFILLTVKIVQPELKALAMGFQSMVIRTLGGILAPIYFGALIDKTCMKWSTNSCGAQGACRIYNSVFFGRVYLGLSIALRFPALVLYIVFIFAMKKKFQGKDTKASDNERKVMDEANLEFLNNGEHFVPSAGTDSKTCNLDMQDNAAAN
Procedure: (§3) For the SLC transporter experiments, Mock Flp-in-293 cells (Flp/mock), OAT1-expressing Flp-in-293 cells (Flp/OAT1), mock HEK293 cells (HEK/mock), and OATP1B3-expressing HEK293 cells (HEK/OATP1B3) were obtained from Kanazawa University (Ishikawa, Japan). Briefly, Flp-in-293 and HEK293 cells were transfected with the appropriate plasmid DNA and selected using antibiotics (hygromycin or G-418). All cell lines were cultured in DMEM (Life Technologies Japan) supplemented with 10% (v/v) fetal bovine serum (American Type Culture Collection) and antibiotics (100 U/mL penicillin and 100 μg/mL streptomycin (Life Technologies Japan) for mock cells, 0.2 mg/mL hygromycin for Flp/OAT1 cells, and 1.2 mg/mL G-418 (Roche Diagnostics K.K., Tokyo, Japan) for HEK/OATP1B3 cells) at 37 °C under an atmosphere containing 5% CO2. […]
(§4) The experiments were performed as described previously, with minor modifications. […] The cells were lysed in 0.3 mL of 0.1N NaOH at room temperature, after which the radioactivity of each aliquot was measured as described above. The protein concentration of the cell lysate was determined with a VersaMax microplate reader (Molecular Devices Japan K.K., Osaka, Japan) or SpectraMax i3x (Molecular Devices Japan K.K.; only for OATP1B1) using a BCA Protein Assay Kit (Thermo Fisher Scientific, Kanagawa, Japan). Tracer uptake was expressed as pmol/mg protein. […]

human P-gp [2] = biological target: T1, human P-gp; test: [14C]fluciclovine uptake by P-gp-expressing inside-out vesicles
Procedure: as §1, §2

OATP1B1 = biological target: T3, OATP1B1 (Homo sapiens, UniProt Q9Y6L6); test: [14C]fluciclovine uptake by OATP1B1-expressing cells; settings: OATP1B1 cells vs mock cells
T3 construct: host or cells: HEK293
T3 sequence (Q9Y6L6 1-691): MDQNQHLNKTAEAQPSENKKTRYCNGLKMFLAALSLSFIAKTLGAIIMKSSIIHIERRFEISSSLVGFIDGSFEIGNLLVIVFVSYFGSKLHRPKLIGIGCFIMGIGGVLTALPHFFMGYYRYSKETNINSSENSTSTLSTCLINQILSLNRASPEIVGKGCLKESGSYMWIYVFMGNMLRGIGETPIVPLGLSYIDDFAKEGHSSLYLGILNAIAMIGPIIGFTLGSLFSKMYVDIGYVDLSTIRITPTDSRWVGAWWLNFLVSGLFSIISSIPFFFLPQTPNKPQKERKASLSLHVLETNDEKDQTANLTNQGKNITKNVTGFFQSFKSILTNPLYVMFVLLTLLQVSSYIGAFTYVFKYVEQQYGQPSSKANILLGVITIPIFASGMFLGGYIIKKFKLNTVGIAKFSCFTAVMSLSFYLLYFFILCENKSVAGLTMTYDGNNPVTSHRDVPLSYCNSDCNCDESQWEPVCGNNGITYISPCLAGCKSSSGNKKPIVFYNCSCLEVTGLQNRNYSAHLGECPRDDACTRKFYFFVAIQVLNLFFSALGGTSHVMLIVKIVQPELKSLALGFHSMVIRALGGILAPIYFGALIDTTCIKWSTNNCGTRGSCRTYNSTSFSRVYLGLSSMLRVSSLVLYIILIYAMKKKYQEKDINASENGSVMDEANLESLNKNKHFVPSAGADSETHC
Procedure: as §3, §4

T1 sequence (P08183 whole entry): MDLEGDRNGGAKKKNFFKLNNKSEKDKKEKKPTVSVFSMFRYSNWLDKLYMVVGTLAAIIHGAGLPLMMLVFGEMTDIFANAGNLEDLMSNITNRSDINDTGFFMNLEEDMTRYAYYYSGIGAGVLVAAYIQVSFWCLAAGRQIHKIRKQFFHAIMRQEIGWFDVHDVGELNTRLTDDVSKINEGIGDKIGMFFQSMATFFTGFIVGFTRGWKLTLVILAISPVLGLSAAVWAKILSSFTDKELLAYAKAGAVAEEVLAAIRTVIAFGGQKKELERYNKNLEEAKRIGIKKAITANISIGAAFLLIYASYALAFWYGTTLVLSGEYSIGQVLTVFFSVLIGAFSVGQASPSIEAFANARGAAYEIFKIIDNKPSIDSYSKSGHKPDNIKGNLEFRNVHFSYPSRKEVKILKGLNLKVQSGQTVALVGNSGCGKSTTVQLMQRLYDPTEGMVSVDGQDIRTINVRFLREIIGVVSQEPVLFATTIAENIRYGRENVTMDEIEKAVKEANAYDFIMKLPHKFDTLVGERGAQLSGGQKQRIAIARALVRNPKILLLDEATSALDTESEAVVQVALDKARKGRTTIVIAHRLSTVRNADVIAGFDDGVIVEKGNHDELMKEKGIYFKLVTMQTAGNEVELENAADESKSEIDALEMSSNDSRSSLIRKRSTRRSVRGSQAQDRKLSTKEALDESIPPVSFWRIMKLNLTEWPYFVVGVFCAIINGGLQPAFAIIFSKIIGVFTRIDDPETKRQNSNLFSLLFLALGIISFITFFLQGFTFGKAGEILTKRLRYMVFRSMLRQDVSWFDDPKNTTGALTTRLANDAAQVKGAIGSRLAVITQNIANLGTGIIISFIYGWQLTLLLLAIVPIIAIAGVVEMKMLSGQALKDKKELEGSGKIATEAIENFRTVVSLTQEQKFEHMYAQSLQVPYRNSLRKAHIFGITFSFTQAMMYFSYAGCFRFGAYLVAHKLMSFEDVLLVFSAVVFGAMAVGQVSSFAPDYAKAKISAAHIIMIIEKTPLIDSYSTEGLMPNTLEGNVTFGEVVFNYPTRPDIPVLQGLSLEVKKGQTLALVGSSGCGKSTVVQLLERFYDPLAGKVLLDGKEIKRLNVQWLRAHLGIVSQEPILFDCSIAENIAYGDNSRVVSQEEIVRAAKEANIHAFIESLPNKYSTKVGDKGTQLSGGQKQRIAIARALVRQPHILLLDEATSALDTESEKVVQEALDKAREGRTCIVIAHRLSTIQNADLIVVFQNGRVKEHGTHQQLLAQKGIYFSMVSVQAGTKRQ

IC50 (human P-gp [1]) | Structure (SMILES) | drug transporter-mediated uptake (OATP1B3) | uptake compared with control vesicles (human P-gp [2]) | drug transporter-mediated uptake (OATP1B1)
2.95 ± 2.56 mM | N[C@]1(C(=O)O)C[C@@H](F)C1 [fluciclovine] |  |  | 
 | N[14C]1(C(=O)O)CC(F)C1 (stereo not drawn) [[^14C]fluciclovine, trans-1-amino-3-fluoro[1-^14C]cyclobutanecarboxylic acid] | negligible | no significant difference | negligible
